Test results as given in ChEMBL document CHEMBL4043138, “Synthesis of antimalarial amide analogues based on the plant serrulatane diterpenoid 3,7,8-trihydroxyserrulat-14-en-19-oic acid” (Bioorg Med Chem Lett, 2017).
The source made the active and inactive calls. No cut-off for these calls is given here.

Key:
Plasmodium falciparum [1] = assay: Antimalarial activity against Plasmodium falciparum 3D7 at 10 uM after 72 hrs by DAPI staining-based fluorescence microscopic analysis; assay type: functional
[2] = (§1) Cytotoxicity against HEK293 cells assessed as cell growth inhibition at 80 uM after 72 hrs by Alamar blue assay relative to control; assay type: cell-based; conditions: human, HEK293 cells; read-out: GI
HEK293 [3] = assay: Cytotoxicity against HEK293 cells assessed as cell growth inhibition after 72 hrs by Alamar blue assay; assay type: cell-based; conditions: Homo sapiens, HEK293, 72 h
[4] = Selectivity ratio of IC50 for Plasmodium falciparum Dd2 to IC50 for Plasmodium falciparum 3D7; assay type: functional
Plasmodium falciparum [5] = assay: Antimalarial activity against Plasmodium falciparum 3D7 after 72 hrs by DAPI staining-based fluorescence microscopic analysis; assay type: functional; conditions: 3D7, 72 h
Plasmodium falciparum [6] = assay: Antimalarial activity against Plasmodium falciparum Dd2 after 72 hrs by DAPI staining-based fluorescence microscopic analysis; assay type: functional; conditions: Dd2, 72 h
[7] = Selectivity index, ratio of IC50 for HEK293 cells to IC50 for Plasmodium falciparum 3D7; assay type: toxicity; conditions: human, HEK293 cells versus Plasmodium falciparum 3D7; read-out: Ratio IC50
HEK293 [8] = assay: Cytotoxicity against HEK293 cells assessed as cell growth inhibition at 40 uM after 72 hrs by Alamar blue assay; assay type: cell-based; conditions: human, hek293, 72 h
Plasmodium falciparum [9] = assay: Antimalarial activity against Plasmodium falciparum Dd2 at 80 uM after 72 hrs by DAPI staining-based fluorescence microscopic analysis; assay type: functional
[10] = Cytotoxicity against HEK293 cells assessed as cell growth inhibition at 20 uM after 72 hrs by Alamar blue assay relative to control; assay type: cell-based; conditions: human, read-out: GI
HEK293 [11] = assay: as §1; assay type: cell-based; conditions: human, hek293, 72 h, 80 µM

Row | SMILES | Activity (Plasmodium falciparum [1]) | inhibition at 72 h, 80 µM [2] | IC50 (HEK293 [3]) | Ratio IC50 [4] | IC50 (Plasmodium falciparum [5]) | IC50 (Plasmodium falciparum [6]) | selectivity ratio [7] | growth inhibition (GI) (HEK293 [8]) | Activity (Plasmodium falciparum [9]) | inhibition at 72 h, 20 µM [10] | growth inhibition (GI) (HEK293 [11])
1 | CC(C)=CCC[C@H](C)[C@H]1c2cc(C(=O)O)c(O)c(O)c2[C@H](C)C[C@H]1O | inactive |  |  |  |  |  |  |  |  |  | 
2 | CC(C)=CCC[C@H](C)[C@H]1c2cc(C(=O)NCCc3ccc(Cl)cc3)c(OC(=O)C(C)(C)C)c(OC(=O)C(C)(C)C)c2[C@H](C)C[C@H]1O |  | 68% | 80 µM | 1.9 | 2.44 µM | 4.57 µM | 32 |  |  |  | 
3 | CCN(CC)CCCC(C)Nc1ccnc2cc(Cl)ccc12 (stereo not given) [CHLOROQUINE] |  |  | 40 µM |  |  |  |  | Non-Toxic |  |  | 
4 | CC(C)=CCC[C@H](C)[C@H]1c2cc(C(=O)O)c(OC(=O)C(C)(C)C)c(OC(=O)C(C)(C)C)c2[C@H](C)C[C@H]1O |  | 70% | 40 µM |  | 13.6 µM |  | 2.9 |  | inactive |  | 
5 | C[C@H]1[C@H](OC(=O)CCC(=O)O)O[C@@H]2O[C@@]3(C)CC[C@H]4[C@H](C)CC[C@@H]1[C@@]24OO3 [ARTESUNATE] |  |  | 10 µM |  |  | 0.001 µM | > 11600 |  |  | 91% | 
6 | CC(C)=CCC[C@H](C)[C@H]1c2cc(C(=O)NCc3ccccc3)c(OC(=O)C(C)(C)C)c(OC(=O)C(C)(C)C)c2[C@H](C)C[C@H]1OC(=O)C(C)(C)C |  | 82% | 40 µM | 2.9 | 2.12 µM | 6.17 µM | 19 |  |  |  | 
7 | CC(=O)OCc1cc2c(c(O)c1O)[C@H](C)C[C@@H](OC(C)=O)[C@H]2[C@@H](C)CCC=C(C)C |  | 59% | 80 µM | 1.3 | 6.89 µM | 8.76 µM | 11.6 |  |  |  | 
8 | CC(C)=CCC[C@H](C)[C@H]1c2cc(C(=O)NCCc3ccccc3)c(OC(=O)C(C)(C)C)c(OC(=O)C(C)(C)C)c2[C@H](C)C[C@H]1OC(=O)C(C)(C)C |  |  | 80 µM | 2.6 | 1.4 µM | 3.63 µM | > 57 |  |  |  | Non-Toxic
9 | CC(C)=CCC[C@H](C)[C@H]1c2cc(C(=O)NCc3ccc(Br)cc3)c(OC(=O)C(C)(C)C)c(OC(=O)C(C)(C)C)c2[C@H](C)C[C@H]1OC(=O)C(C)(C)C |  | 71% | 40 µM | 3.6 | 1.42 µM | 5.03 µM | 28 |  |  |  | 
10 | CC(C)=CCC[C@H](C)[C@H]1c2cc(C(=O)NCCc3ccc(Br)cc3)c(OC(=O)C(C)(C)C)c(OC(=O)C(C)(C)C)c2[C@H](C)C[C@H]1OC(=O)C(C)(C)C |  |  | 80 µM | 2.4 | 3.12 µM | 7.42 µM | > 26 |  |  |  | Non-Toxic
11 | CC(=O)O[C@@H]1C[C@@H](C)c2c(cc(C(=O)O)c(O)c2O)[C@@H]1[C@@H](C)CCC=C(C)C | inactive |  |  |  |  |  |  |  |  |  | 
12 | CC(C)=CCC[C@H](C)[C@H]1c2cc(C(=O)NCCc3ccc(F)cc3)c(OC(=O)C(C)(C)C)c(OC(=O)C(C)(C)C)c2[C@H](C)C[C@H]1OC(=O)C(C)(C)C |  |  | 80 µM | 3 | 1.25 µM | 3.76 µM | > 64 |  |  |  | Non-Toxic
13 | CC(C)=CCC[C@H](C)[C@H]1c2cc(C(=O)NCCc3ccc(Cl)cc3)c(OC(=O)C(C)(C)C)c(OC(=O)C(C)(C)C)c2[C@H](C)C[C@H]1OC(=O)C(C)(C)C |  |  | 80 µM | 2.2 | 2.7 µM | 5.94 µM | > 30 |  |  |  | Non-Toxic
14 | CC(C)=CCC[C@H](C)[C@H]1c2cc(C(=O)NCCN(C)C)c(OC(=O)C(C)(C)C)c(OC(=O)C(C)(C)C)c2[C@H](C)C[C@H]1OC(=O)C(C)(C)C |  |  | 14.6 µM | 1.6 | 5.65 µM | 8.76 µM | 2.6 |  |  |  | 
15 | COc1ccc(C[C@H](N)C(=O)N[C@H]2[C@@H](O)[C@H](n3cnc4c(N(C)C)ncnc43)O[C@@H]2CO)cc1 [PUROMYCIN] |  |  | 0.46 µM | 1.16 | 0.0532 µM | 0.0438 µM | 9 |  |  |  | 
16 | CC(C)=CCC[C@H](C)[C@H]1c2cc(C(=O)O)c(O)c(OC(=O)C(C)(C)C)c2[C@H](C)C[C@H]1OC(=O)C(C)(C)C |  | 100% | 40 µM | 1.2 | 8.44 µM | 10.2 µM | 4.7 |  |  |  | 
17 | CC(C)=CCC[C@H](C)[C@H]1c2cc(C(=O)NCc3ccc(F)cc3)c(OC(=O)C(C)(C)C)c(OC(=O)C(C)(C)C)c2[C@H](C)C[C@H]1OC(=O)C(C)(C)C |  | 44% | 80 µM | 3.4 | 1.79 µM | 6.13 µM | 44 |  |  |  | 
18 | CC(C)=CCC[C@H](C)[C@H]1c2cc(C(=O)NCc3ccc(Cl)cc3)c(OC(=O)C(C)(C)C)c(OC(=O)C(C)(C)C)c2[C@H](C)C[C@H]1OC(=O)C(C)(C)C |  | 86% | 40 µM | 3.6 | 1.36 µM | 4.96 µM | 29.4 |  |  |  | 
19 | CC(C)=CCC[C@H](C)[C@H]1c2cc(C(=O)O)c(OC(=O)C(C)(C)C)c(OC(=O)C(C)(C)C)c2[C@H](C)C[C@H]1OC(=O)C(C)(C)C |  | 100% | 40 µM | 1.8 | 9.97 µM | 18 µM | 4 |  |  |  | 
